Assay results as given in publication PMC6804113, “Cyclic Peptides Acting as Allosteric Inhibitors of Human Thymidylate Synthase and Cancer Cell Growth” (Molecules, 2019).
Values joined by “and” are separate entries in the source; they are usually repeats but may differ in a detail not shown here. Identical values can stand only once. “Also recorded” adds a separate entry of the source. Like-named read-outs stand apart in the source and are kept apart here. Starred links: 1 amine or outer side, 2 acyl side, 3 side chain; linkers in the order of their positions; H or OH if unused. Positions of bridges follow the written chain, without caps; N, C: chain ends. Non-standard residues stand in square brackets, D forms with d. Residues, ends and D or L forms follow the SMILES beside them. No end group written: not given here. Cysteamide = C(CS[*:3])N[*:1]

Key:
[1] = target: T1, recombinant human thymidylate synthase (hTS) (Homo sapiens, UniProt P04818); conditions: at 100 µM; ref [20]; cited from earlier work
T1 construct: made in house
T1 sequence (P04818 whole entry): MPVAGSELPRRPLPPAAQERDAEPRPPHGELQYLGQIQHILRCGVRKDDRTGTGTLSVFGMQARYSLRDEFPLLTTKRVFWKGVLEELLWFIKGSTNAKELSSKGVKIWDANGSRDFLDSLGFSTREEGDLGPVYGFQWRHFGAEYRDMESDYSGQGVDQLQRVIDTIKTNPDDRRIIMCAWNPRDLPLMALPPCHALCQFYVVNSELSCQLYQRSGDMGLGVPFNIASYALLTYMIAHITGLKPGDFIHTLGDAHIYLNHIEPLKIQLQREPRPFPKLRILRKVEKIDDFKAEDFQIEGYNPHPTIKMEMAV

[2] = target: T1, recombinant human thymidylate synthase (hTS); assay: hTS inhibition assay (spectrophotometric, absorbance at 340 nm); format: biochemical; conditions: for inhibition at 500 µM / % inhibition of hTS: at 500 µM and r.t.
Procedure: hTS was purified as previously reported. The enzyme solution was thawed the day of the experiment and the enzyme concentration was determined by UV−Vis spectroscopy (Varian Cary 100, Agilent, Santa Clara, CA, USA) using ε280 = 89000 M^−1 cm^−1 and Mr = 74 229. The thawed protein solution was kept constantly at 4 °C. In this condition, the enzyme was able to reproduce normal kinetic activity values (KM dUMP = 10−12 μM, KM mTHF = 4−6 μM, kcat = 0.8−0.9 s^−1). The peptide solution was mixed or vortexed in order to help solubilization; the precise concentration was determined through UV−Vis spectroscopy. A stock solution of mTHF was prepared in carbonate buffer. The stock was prepared in the range of 5 to 6 mM. A stock solution of dUMP was prepared in bidistilled water in the range of 10−12 mM. Peptide inhibitors were tested without incubation with hTS in […], at 25 °C. A 1 mL amount of assay buffer consisted of 50 mM TES, pH 7.4, containing 25 mM MgCl2, 6.5 mM HCHO, 1 mM EDTA, 75 mM β-mercaptoethanol (β-ME), 0.120 mM dUMP, and 0.060 mM mTHF. Following the addition of the enzyme (300 nM) and inhibitor mixture, the absorbance was monitored at 340 nm in a UV−Vis spectrophotometer for 3 min. In the control sample, an equal aliquot of enzyme alone was added. hTS activity inhibition percentages (I%) values were measured at 0.100−3000 µM concentration of inhibitor. […] The kinetic inhibition pattern was studied for compound 7 [12]. The inhibition values are expressed as mean ± SEM; n = 3.

[3] = target: T1, recombinant human thymidylate synthase (hTS); assay: as above; format: biochemical; conditions: for IC50: room temperature (20–22 °C) under stirring, standard error ±20% of the value; for % inhibition of hTS: at 500 µM and 37 °C under stirring
[4] = tested on: IGROV-1 cells; assay: Cytotoxicity, crystal violet cell growth assay, peptides transfected with SAINT-PhD; format: cell-based, human; conditions: at 10 and 25 µM, ranking among the 10 cPs, SAINT-PhD delivery
Procedure: (§1) The IGROV-1, A2780, and A2780/CP human ovarian cancer cell lines were grown as monolayer in RPMI 1640 medium containing 10% heat-inactivated fetal bovine serum and 50 µg/mL gentamycin sulfate (Euroclone, Devon, UK). Cultures were equilibrated with humidified 5% CO2 in air at 37 °C. The cDDP-resistant variant A2780/CP cell line, derived from the parent A2780 cell line, is about 10-fold resistant to cDDP and was developed by monthly exposure to cDDP, followed by chronic exposure to stepwise increases in cDDP concentration. All studies were performed in Mycoplasma negative cells, as routinely determined with the MycoAlert Mycoplasma detection kit (Lonza, Walkersville, MD, USA).
(§2) Treatment with each peptide was performed according to the standard transfection protocol of the SAINT-PhD delivery system (Synvolux Therapeutics, Leiden, Netherlands). Complexes of peptide (µg) with SAINT-PhD (µL) were prepared at appropriate ratios corresponding to the approximate µM concentrations indicated. For each protein sample, complexes were prepared as follows: for the treatment of a 24-well plate, the appropriate amount of each peptide was diluted in HBS, then SAINT-PhD was pipetted into the solution without vortexing; then, the mixture was incubated for 5 min at room temperature, and filled up to 500 µL with serum-free medium. The culture medium was aspirated from the cells, the SAINT-PhD/peptide complex was added to the wells and incubated 4 h (37 °C, 5% CO2). Afterward, complete RPMI was added to reach the appropriate volume for maintaining the cell culture for the duration of the experiments.
(§3) Cell growth was determined using a modified crystal violet assay. On selected days, the tissue culture medium was removed, and the cell monolayer fixed with methanol and stained with 0.2% crystal violet solution in 20% methanol for at least 30 min. After being washed several times with distilled water to remove excess dye, the cells were left to dry. The incorporated dye was solubilized in acidified isopropanol (1N HCl: 2-propanol, 1:10). After appropriate dilution, absorbance was determined spectrophotometrically at 540 nm. The extracted dye was proportional to cell biomass. The percentage of cytotoxicity was calculated by comparing the absorbance of cultures exposed to the drug to unexposed (control) cultures.

[5] = tested on: A2780/CP cells; assay: as above; format: cell-based, human; conditions: SAINT-PhD delivery
Procedure: as §1, §2, §3

[6] = tested on: A2780 cells; assay: as above; format: cell-based, human; conditions: SAINT-PhD delivery
Procedure: as §1, §2, §3

Row | Compound | IC50 [3] | cytotoxicity (in words) [4] | % inhibition of hTS [2] | further results
1 | LSPQLYQR [[Pro^3]LR, proline mutant of LR] | – | – | – | % inhibition of hTS [1]: 25% at 100 µM ^c
2 | CC(C)C[C@@H]1NC(=O)[C@H](CCC(N)=O)NC(=O)[C@@H]2CCCN2C(=O)[C@H](CO)NC(=O)[C@@H](N)CSSC[C@@H](C(=O)O)NC(=O)[C@H](CCC(N)=O)NC(=O)[C@H](Cc2ccc(O)cc2)NC1=O [Peptide 10] (H-CSPQLYQC-OH; disulfide 1-8) | 484 µM and 474 µM | intermediate cytotoxicities | – | inhibition at 500 µM [2]: 50%
3 | CC(C)C[C@@H]1NC(=O)[C@H](CCC(N)=O)NC(=O)[C@@H]2CCCN2C(=O)[C@@H](NC(=O)[C@@H](N)CC(C)C)CSSC[C@@H](C(=O)N[C@@H](CCC(N)=O)C(=O)N[C@@H](CCCNC(=N)N)C(=O)O)NC1=O [Peptide 6, Leu-c[Cys-Pro-Gln-Leu-Cys]-Gln-Arg] (H-LCPQLCQR-OH; disulfide 2-6) | – | least active; also recorded: almost non-cytotoxic | inactive | % inhibition of hTS [3]: inactive; cytotoxicity (in words) [5]: almost non-cytotoxic; cytotoxicity (in words) [6]: almost non-cytotoxic
4 | CC(C)C[C@@H]1NC(=O)[C@H](CCC(N)=O)NC(=O)[C@@H]2CCCN2C(=O)[C@@H](NC(=O)[C@@H](N)CC(C)C)CSSC[C@@H](C(=O)O)NC(=O)[C@H](CCC(N)=O)NC(=O)[C@H](Cc2ccc(O)cc2)NC1=O [Peptide 8, Leu-c[Cys-Pro-Gln-Leu-Tyr-Gln-Cys]] (H-LCPQLYQC-OH; disulfide 2-8) | 856 µM | least active | – | inhibition at 500 µM [2]: 38%
5 | CC(C)C[C@@H]1NC(=O)[C@H](CCC(N)=O)NC(=O)[C@H](C)NC(=O)[C@@H](NC(=O)[C@@H](N)CC(C)C)CSSC[C@@H](C(=O)O)NC(=O)[C@H](CCC(N)=O)NC(=O)[C@H](Cc2ccc(O)cc2)NC1=O [Peptide 2, Leu-c[Cys-Ala-Gln-Leu-Tyr-Gln-Cys]] (H-LCAQLYQC-OH; disulfide 2-8) | 900 µM | least active | – | inhibition at 400 µM ([2]; at 400 µM and r.t. under stirring): 36%
6 | CC(C)C[C@@H]1NC(=O)[C@H](CCC(N)=O)NC(=O)[C@@H]2CCCN2C(=O)[C@@H](NC(=O)[C@@H](N)CC(C)C)CSSCCNC(=O)[C@H](CCCNC(=N)N)NC(=O)[C@H](CCC(N)=O)NC(=O)[C@H](Cc2ccc(O)cc2)NC1=O [Peptide 9, Leu-c[Cys-Pro-Gln-Leu-Tyr-Gln-Arg-CAM]] (H-LCPQLYQR-Cysteamide; disulfide 2-C) | – | intermediate cytotoxicities | inactive; also recorded: N.I. at 500 µM and r.t. N.I. at 500 µM and 37 °C under stirring | % inhibition of hTS [3]: inactive; also recorded: N.I. at 500 µM and r.t. N.I. at 500 µM and 37 °C under stirring
7 | CC(C)C[C@@H]1NC(=O)[C@@H](CCC(N)=O)NC(=O)[C@@H](NC(=O)[C@H](CO)NC(=O)[C@@H](N)CC(C)C)CSSC[C@@H](C(=O)O)NC(=O)[C@H](CCC(N)=O)NC(=O)[C@H](Cc2ccc(O)cc2)NC1=O [Peptide 4, Leu-Ser-c[Cys-D-Gln-Leu-Tyr-Gln-Cys]] (H-LSC[dQ]LYQC-OH; disulfide 3-8) | – | least active | inactive | –
